Literature values in patent publication US20170042147A1, “A miticide composition of prolonged action and its manufacturing process, a miticide strip and a procedure to control Varroa destructor mite” (COOP. DE TRABAJO APÍCOLA PAMPERO LTDA, priority 2014, published 2017).

Test system: Varroa
Details: bee hives without brood; use in Europe

SMILES: O=C(O)C(=O)O [Oxalic acid]
- efficacy against Varroa: excellent efficacy
